SMILES strings stand for the structures. Where “and” joins values, the source holds several entries; their conditions need not be identical. Equal entries are not always repeated. Toxic doses and inconclusive results are not listed.

Consider 13 compounds from PubChem BioAssay AID248 (DTP/NCI, 2004).

The assay concerns L1210 leukemia ip in BDF1 mice, survival T/C. Put plainly: NCI In Vivo Anticancer Drug Screen. Data for tumor model L1210 Leukemia (intraperitoneal) in B6D2F1 (BDF1) mice. Conditions: endpoint: mean survival time, higher = longer survival. In a few lines: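 Read-out is survival time, reported as the treated-group measurement over the vehicle-control measurement.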
[1] abbreviates: dose: 3.12 mg/kg/injection, schedule: Q01DX009 (ip), vehicle: saline.
Where [2] appears, read: dose: 6.25 mg/kg/injection, schedule: Q01DX009 (ip), vehicle: saline.
The mark [3] stands for this setting: dose: 6.25 mg/kg/injection, schedule: Q04DX003 (ip), vehicle: saline.
[4] abbreviates: dose: 12.5 mg/kg/injection, schedule: Q01DX009 (ip), vehicle: saline.
Where [5] appears, read: dose: 12.5 mg/kg/injection, schedule: Q04DX003 (ip), vehicle: saline.
The mark [6] stands for this setting: dose: 25.0 mg/kg/injection, schedule: Q01DX009 (ip), vehicle: saline.
[7] abbreviates: dose: 25.0 mg/kg/injection, schedule: Q04DX003 (ip), vehicle: saline.
Where [8] appears, read: dose: 100.0 mg/kg/injection, schedule: Q01DX009 (ip), vehicle: Klucel (hydroxypropylcellulose) (HPC).
Where [9] appears, read: dose: 100.0 mg/kg/injection, schedule: Q04DX003 (ip), vehicle: Klucel (hydroxypropylcellulose) (HPC).
Where [10] appears, read: dose: 200.0 mg/kg/injection, schedule: Q04DX003 (ip), vehicle: Klucel (hydroxypropylcellulose) (HPC).
[11] abbreviates: dose: 400.0 mg/kg/injection, schedule: Q04DX003 (ip), vehicle: Klucel (hydroxypropylcellulose) (HPC).
Setting [12] is: dose: 100.0 mg/kg/injection, schedule: Q04DX002 (ip), vehicle: Klucel (hydroxypropylcellulose) (HPC).

For `COc1ccc(Cl)cc1NC(=O)N(CCCl)N=O`, the T/C is 103 % of control (dose: 0.1 mg/kg/injection, schedule: Q01DX009 (ip), vehicle: carboxymethylcellulose (CMC)); 122 % of control (dose: 1.0 mg/kg/injection, schedule: Q01DX001 (ip), vehicle: carboxymethylcellulose (CMC)); 105 % of control (dose: 1.0 mg/kg/injection, schedule: Q01DX009 (ip), vehicle: Klucel (hydroxypropylcellulose) (HPC)); 117 % of control (dose: 2.0 mg/kg/injection, schedule: Q01DX001 (ip), vehicle: carboxymethylcellulose (CMC)); 117 % of control (dose: 2.12 mg/kg/injection, schedule: Q01DX001 (ip), vehicle: Klucel (hydroxypropylcellulose) (HPC)); 119 % of control (dose: 4.25 mg/kg/injection, schedule: Q01DX001 (ip), vehicle: Klucel (hydroxypropylcellulose) (HPC)). Also, the T/C runs as follows: (dose: 5.0 mg/kg/injection, schedule: Q01DX009 (ip), vehicle: Klucel (hydroxypropylcellulose) (HPC)) 105 % of control; (dose: 6.0 mg/kg/injection, schedule: Q01DX009 (ip), vehicle: carboxymethylcellulose (CMC)) 153 % of control; (dose: 8.8 mg/kg/injection, schedule: Q01DX009 (ip), vehicle: carboxymethylcellulose (CMC)) 166 % of control; (dose: 15.0 mg/kg/injection, schedule: Q01DX001 (ip), vehicle: carboxymethylcellulose (CMC)) 151 % of control; (dose: 17.0 mg/kg/injection, schedule: Q01DX001 (ip), vehicle: Klucel (hydroxypropylcellulose) (HPC)) 158 % of control; (dose: 17.0 mg/kg/injection, schedule: Q01DX009 (ip), vehicle: Klucel (hydroxypropylcellulose) (HPC)) 174 % of control. Further, the T/C reads like this: (dose: 20.0 mg/kg/injection, schedule: Q01DX009 (ip), vehicle: carboxymethylcellulose (CMC)) 100 % of control; (dose: 26.0 mg/kg/injection, schedule: Q01DX001 (ip), vehicle: carboxymethylcellulose (CMC)) 151 % of control and 196 % of control; (dose: 26.0 mg/kg/injection, schedule: Q01DX009 (ip), vehicle: Klucel (hydroxypropylcellulose) (HPC)) 87 % of control; (dose: 30.0 mg/kg/injection, schedule: Q01DX001 (ip), vehicle: carboxymethylcellulose (CMC)) 151 % of control; (dose: 30.0 mg/kg/injection, schedule: Q01DX009 (ip), vehicle: carboxymethylcellulose (CMC)) 98 % of control; (dose: 40.0 mg/kg/injection, schedule: Q01DX001 (ip), vehicle: carboxymethylcellulose (CMC)) 93 % of control. In addition, where the note is “dose: 75.0 mg/kg/injection, schedule: Q01DX001 (ip), vehicle: carboxymethylcellulose (CMC)”, the T/C is 95 % of control.
Take `COc1ccc2c(c1)N(CCC1CCCCN1C)c1ccccc1S2` (stereo unspecified): the T/C is 108 % of control and 121 % of control under setting [1]; 105 % of control and 118 % of control under setting [2]; 107 % of control under setting [3]; 111 % of control under setting [4]; 106 % of control under setting [5]; 117 % of control under setting [6]. The T/C by setting is: under setting [7], 117 % of control and 122 % of control; (dose: 50.0 mg/kg/injection, schedule: Q04DX003 (ip), vehicle: saline) 114 % of control and 117 % of control.
On to `CC(=O)NN`, for which, for the setting “dose: 100.0 mg/kg/injection, schedule: Q01DX001 (ip), vehicle: saline”, the T/C was 104 % of control.
On to `C(=P(c1ccccc1)(c1ccccc1)c1ccccc1)[P+](c1ccccc1)(c1ccccc1)c1ccccc1.[Br][Cu][Br]`, for which the T/C reads like this: (dose: 1.56 mg/kg/injection, schedule: Q01DX009 (ip), vehicle: Klucel (hydroxypropylcellulose) (HPC)) 101 % of control; (dose: 3.13 mg/kg/injection, schedule: Q01DX009 (ip), vehicle: Klucel (hydroxypropylcellulose) (HPC)) 109 % of control; (dose: 6.25 mg/kg/injection, schedule: Q01DX009 (ip), vehicle: Klucel (hydroxypropylcellulose) (HPC)) 114 % of control.
In the case of `c1ccc2c(c1)OCC(CNC1CCCCC1)O2` (stereo unspecified), the T/C was 100 % of control (dose: 12.5 mg/kg/injection, schedule: Q04DX003 (ip), vehicle: saline with Tween-80); 94 % of control and 100 % of control (dose: 25.0 mg/kg/injection, schedule: Q04DX003 (ip), vehicle: saline with Tween-80); 94 % of control (dose: 50.0 mg/kg/injection, schedule: Q04DX003 (ip), vehicle: saline with Tween-80); 98 % of control and 100 % of control (dose: 100.0 mg/kg/injection, schedule: Q04DX003 (ip), vehicle: saline with Tween-80).
Turning to `CCOC(=O)c1cnc(SC)nc1Nc1cccc(Cl)c1`, the T/C runs as follows: under setting [8], 97 % of control; under setting [9], 90 % of control; under setting [10], 92 % of control; (dose: 400.0 mg/kg/injection, schedule: Q01DX009 (ip), vehicle: Klucel (hydroxypropylcellulose) (HPC)) 90 % of control; under setting [11], 88 % of control.
Regarding `Clc1ccc(OCc2sc3ccc(Br)cc3c2CN2CCc3ccccc3C2)cc1`, the T/C by setting is: (dose: 75.0 mg/kg/injection, schedule: Q01DX009 (ip), vehicle: Klucel (hydroxypropylcellulose) (HPC)) 101 % of control; under setting [9], 94 % of control; (dose: 150.0 mg/kg/injection, schedule: Q01DX009 (ip), vehicle: Klucel (hydroxypropylcellulose) (HPC)) 94 % of control; under setting [10], 98 % of control; (dose: 300.0 mg/kg/injection, schedule: Q01DX009 (ip), vehicle: Klucel (hydroxypropylcellulose) (HPC)) 97 % of control; under setting [11], 94 % of control.
On to `O=C(O)CC1(C(=O)O)CCN(Cc2ccccc2)CC1`, for which the T/C is 103 % of control under setting [9], 102 % of control under setting [10] and 100 % of control under setting [11].
As to `CNCC(O)c1cccc(O)c1` (stereo unspecified), the T/C is, setting by setting: (dose: 1.56 mg/kg/injection, schedule: Q01DX009 (ip), vehicle: saline) 94 % of control; under setting [1], 98 % of control; (dose: 3.12 mg/kg/injection, schedule: Q04DX003 (ip), vehicle: saline) 109 % of control; under setting [2], 94 % of control; under setting [3], 104 % of control; under setting [4], 122 % of control. In addition, the T/C is 96 % of control under setting [5], 100 % of control under setting [6] and 113 % of control under setting [7].
On to `CCOC(=O)CNc1ccc(F)cc1Cl`, for which the T/C was 105 % of control under setting [12]; 101 % of control (dose: 200.0 mg/kg/injection, schedule: Q04DX002 (ip), vehicle: Klucel (hydroxypropylcellulose) (HPC)); 105 % of control (dose: 400.0 mg/kg/injection, schedule: Q04DX002 (ip), vehicle: Klucel (hydroxypropylcellulose) (HPC)).
For the compound `CC(=O)Oc1c2c(c(CC=C(C)C)c3c1C(=O)C1=CC4CC5C(C)(C)OC(C/C=C(/C)C(=O)O)(C4=O)C15O3)OC(C)(CCC=C(C)C)C=C2` (stereo unspecified), the T/C runs as follows: (dose: 50.0 mg/kg/injection, schedule: Q01DX009 (ip), vehicle: Klucel (hydroxypropylcellulose) (HPC)) 109 % of control; (dose: 50.0 mg/kg/injection, schedule: Q04DX003 (ip), vehicle: Klucel (hydroxypropylcellulose) (HPC)) 103 % of control; (dose: 100.0 mg/kg/injection, schedule: Q01DX001 (ip), vehicle: Klucel (hydroxypropylcellulose) (HPC)) 106 % of control; under setting [8], 91 % of control; under setting [9], 97 % of control; (dose: 200.0 mg/kg/injection, schedule: Q01DX001 (ip), vehicle: Klucel (hydroxypropylcellulose) (HPC)) 114 % of control. Also, the T/C is 105 % of control under setting [10] and 110 % of control (dose: 400.0 mg/kg/injection, schedule: Q01DX001 (ip), vehicle: Klucel (hydroxypropylcellulose) (HPC)).
Consider `CC1CN=C(c2ccc(NC(=O)Nc3ccc(C4=NCC(C)N4)cc3)cc2)N1` (stereo unspecified), for which the T/C (dose: 0.62 mg/kg/injection, schedule: Q01DX Z (ip), vehicle: saline) is 109 % of control; the T/C (dose: 1.25 mg/kg/injection, schedule: Q01DX Z (ip), vehicle: saline) was 114 % of control; the T/C (dose: 2.5 mg/kg/injection, schedule: Q01DX Z (ip), vehicle: saline) is 118 % of control; the T/C (dose: 5.0 mg/kg/injection, schedule: Q01DX Z (ip), vehicle: saline) was 111 % of control.
`Cc1c(-c2nc(SCC(=O)NN)n[nH]2)no[n+]1[O-]`: the T/C was 102 % of control (dose: 25.0 mg/kg/injection, schedule: Q04DX002 (ip), vehicle: Klucel (hydroxypropylcellulose) (HPC)); 91 % of control (dose: 50.0 mg/kg/injection, schedule: Q04DX002 (ip), vehicle: Klucel (hydroxypropylcellulose) (HPC)); 98 % of control under setting [12].
